Among the data in ChEMBL document CHEMBL4007467, “Effects of 6-paradol, an unsaturated ketone from gingers, on cytochrome P450-mediated drug metabolism” (Bioorg Med Chem Lett, 2017) are IC50 values, retold here.

Molecules are shown by their SMILES.

One may read the IC50 as the point on the concentration scale where inhibition reaches its midpoint.

Common to all, as to format: ADME
The target of assay [1] is T1, Cytochrome P450 1A2 (Homo sapiens, UniProt P05177).
T1 sequence (P05177 whole entry): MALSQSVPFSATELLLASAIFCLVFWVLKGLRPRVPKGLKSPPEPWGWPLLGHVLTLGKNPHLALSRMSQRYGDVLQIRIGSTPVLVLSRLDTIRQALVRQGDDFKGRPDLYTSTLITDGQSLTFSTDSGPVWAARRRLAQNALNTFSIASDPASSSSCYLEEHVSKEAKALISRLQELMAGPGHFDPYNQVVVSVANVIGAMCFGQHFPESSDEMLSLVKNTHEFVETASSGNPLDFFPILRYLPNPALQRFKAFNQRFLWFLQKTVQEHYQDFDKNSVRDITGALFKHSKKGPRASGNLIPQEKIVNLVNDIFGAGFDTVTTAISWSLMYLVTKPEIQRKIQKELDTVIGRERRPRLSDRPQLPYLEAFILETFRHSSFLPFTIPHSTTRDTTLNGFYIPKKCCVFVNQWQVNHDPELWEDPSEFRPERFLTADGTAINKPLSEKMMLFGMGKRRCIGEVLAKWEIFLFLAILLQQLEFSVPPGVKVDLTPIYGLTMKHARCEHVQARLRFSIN
Nature of the assay: Inhibition of CYP1A2 in human liver microsomes using phenacetin as substrate preincubated for 10 mins followed by NADPH addition measured after 10 mins.

A further assay deals with T2, Cytochrome P450 2B6 (Homo sapiens, UniProt P20813).
T2 sequence (P20813 whole entry): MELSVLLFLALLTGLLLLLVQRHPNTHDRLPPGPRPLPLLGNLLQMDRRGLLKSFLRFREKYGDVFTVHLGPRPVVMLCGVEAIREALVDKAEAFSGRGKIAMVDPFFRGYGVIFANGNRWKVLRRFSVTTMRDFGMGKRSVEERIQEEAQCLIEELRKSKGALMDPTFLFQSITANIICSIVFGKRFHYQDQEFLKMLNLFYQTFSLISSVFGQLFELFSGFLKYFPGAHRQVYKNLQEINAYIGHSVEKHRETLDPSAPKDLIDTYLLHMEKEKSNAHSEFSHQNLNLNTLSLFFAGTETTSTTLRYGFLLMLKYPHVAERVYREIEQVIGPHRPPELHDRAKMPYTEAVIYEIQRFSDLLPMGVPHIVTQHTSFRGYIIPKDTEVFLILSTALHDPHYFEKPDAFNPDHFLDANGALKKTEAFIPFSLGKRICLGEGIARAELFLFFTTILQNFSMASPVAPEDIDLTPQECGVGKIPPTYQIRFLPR
As to the kind of experiment: Inhibition of CYP2B6 in human liver microsomes using bupropion as substrate preincubated for 10 mins followed by NADPH addition measured after 20 mins. Background: Microsomes from liver hold many membrane-bound enzymes, among them those of drug oxidation.

A further assay concerns the target T3, Cytochrome P450 2C8 (Homo sapiens, UniProt P10632).
T3 sequence (P10632 whole entry): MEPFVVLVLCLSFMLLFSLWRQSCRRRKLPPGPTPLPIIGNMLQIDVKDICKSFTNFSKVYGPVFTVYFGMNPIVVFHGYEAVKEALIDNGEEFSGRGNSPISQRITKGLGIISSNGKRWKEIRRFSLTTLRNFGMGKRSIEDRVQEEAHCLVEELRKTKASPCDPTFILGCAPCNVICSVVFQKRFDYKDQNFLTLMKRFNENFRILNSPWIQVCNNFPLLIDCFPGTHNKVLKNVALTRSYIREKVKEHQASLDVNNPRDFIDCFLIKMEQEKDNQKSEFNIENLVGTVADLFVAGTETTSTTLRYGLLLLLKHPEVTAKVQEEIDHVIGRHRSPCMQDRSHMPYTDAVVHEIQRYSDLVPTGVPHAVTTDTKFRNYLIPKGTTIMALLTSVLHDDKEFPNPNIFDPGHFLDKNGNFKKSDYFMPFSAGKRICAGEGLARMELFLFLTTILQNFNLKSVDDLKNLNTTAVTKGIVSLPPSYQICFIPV
Nature of the assay: Inhibition of CYP2C8 in human liver microsomes using amodiaquin as substrate preincubated for 10 mins followed by NADPH addition measured after 10 mins.

Assay [2] addresses T4, Cytochrome P450 2C9 (Homo sapiens, UniProt P11712). Nature of the assay: Inhibition of CYP2C9 in human liver microsomes using diclofenac as substrate preincubated for 10 mins followed by NADPH addition measured after 7 mins.
The target in assay [3] is T5, Cytochrome P450 2C19 (Homo sapiens, UniProt P33261). Nature of the assay: Inhibition of CYP2C19 in human liver microsomes using (S)-mephenytoin as substrate preincubated for 10 mins followed by NADPH addition measured after 40 mins.
T5 sequence (P33261 whole entry): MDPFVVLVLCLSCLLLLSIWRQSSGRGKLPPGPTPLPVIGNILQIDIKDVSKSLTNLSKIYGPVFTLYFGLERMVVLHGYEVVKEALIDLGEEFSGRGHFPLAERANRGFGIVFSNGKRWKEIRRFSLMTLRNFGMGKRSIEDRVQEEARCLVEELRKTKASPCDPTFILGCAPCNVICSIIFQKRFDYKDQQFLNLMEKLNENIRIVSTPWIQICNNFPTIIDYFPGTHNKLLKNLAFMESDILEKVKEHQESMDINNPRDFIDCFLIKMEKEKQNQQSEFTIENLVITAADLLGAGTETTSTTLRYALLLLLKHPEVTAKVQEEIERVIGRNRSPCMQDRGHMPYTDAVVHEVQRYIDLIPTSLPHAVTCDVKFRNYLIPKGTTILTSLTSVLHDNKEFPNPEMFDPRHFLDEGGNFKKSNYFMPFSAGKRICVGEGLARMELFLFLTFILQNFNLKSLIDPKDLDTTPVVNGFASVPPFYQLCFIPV
Assay [4] has as its target T6, Cytochrome P450 3A4 (Homo sapiens, UniProt P08684). Nature of the assay: Inhibition of CYP3A4 in human liver microsomes using testosterone as substrate preincubated for 10 mins followed by NADPH addition measured after 10 mins.
The next assay concerns the target T7, Cytochrome P450 2A6 (Homo sapiens, UniProt P11509).
T7 sequence (P11509 whole entry): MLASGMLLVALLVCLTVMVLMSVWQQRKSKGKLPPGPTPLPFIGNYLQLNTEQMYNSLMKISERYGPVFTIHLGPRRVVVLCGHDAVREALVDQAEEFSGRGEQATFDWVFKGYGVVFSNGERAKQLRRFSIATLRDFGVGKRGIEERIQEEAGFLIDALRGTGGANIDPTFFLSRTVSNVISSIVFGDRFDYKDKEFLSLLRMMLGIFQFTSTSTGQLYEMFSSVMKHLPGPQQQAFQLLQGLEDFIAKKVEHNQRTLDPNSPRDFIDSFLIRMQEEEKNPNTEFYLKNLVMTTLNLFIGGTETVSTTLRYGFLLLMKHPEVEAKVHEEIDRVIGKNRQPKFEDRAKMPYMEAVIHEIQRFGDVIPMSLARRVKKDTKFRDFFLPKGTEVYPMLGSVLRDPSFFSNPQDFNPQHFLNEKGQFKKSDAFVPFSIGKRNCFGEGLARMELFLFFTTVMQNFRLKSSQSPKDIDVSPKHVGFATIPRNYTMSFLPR
As to the kind of experiment: Inhibition of CYP2A6 in human liver microsomes using Coumarin as substrate preincubated for 10 mins followed by NADPH addition measured after 15 mins.

The target of assay [5] is T8, Cytochrome P450 2D6 (Homo sapiens, UniProt P10635). As to the kind of experiment: Inhibition of CYP2D6 in human liver microsomes using dextromethorphan as substrate preincubated for 10 mins followed by NADPH addition measured after 15 mins.
T8 sequence (P10635 whole entry): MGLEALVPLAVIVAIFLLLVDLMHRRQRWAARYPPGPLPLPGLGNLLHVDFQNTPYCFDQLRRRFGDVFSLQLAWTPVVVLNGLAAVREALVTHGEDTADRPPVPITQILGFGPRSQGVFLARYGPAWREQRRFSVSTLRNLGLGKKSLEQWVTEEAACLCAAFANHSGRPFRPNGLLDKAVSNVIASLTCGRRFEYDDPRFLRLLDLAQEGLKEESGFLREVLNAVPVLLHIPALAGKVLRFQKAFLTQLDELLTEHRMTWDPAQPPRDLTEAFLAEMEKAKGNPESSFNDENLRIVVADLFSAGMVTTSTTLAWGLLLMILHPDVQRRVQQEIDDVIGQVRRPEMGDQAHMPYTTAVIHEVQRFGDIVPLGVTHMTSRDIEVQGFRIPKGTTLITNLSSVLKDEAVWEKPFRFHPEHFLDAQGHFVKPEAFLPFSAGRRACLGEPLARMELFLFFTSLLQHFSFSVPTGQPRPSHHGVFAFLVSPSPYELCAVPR
Assay [6] deals with T9, Cytochrome P450 2E1 (Homo sapiens, UniProt P05181). Nature of the assay: Inhibition of CYP2E1 in human liver microsomes using chlorzoxazone as substrate preincubated for 10 mins followed by NADPH addition measured after 20 mins.
T9 sequence (P05181 whole entry): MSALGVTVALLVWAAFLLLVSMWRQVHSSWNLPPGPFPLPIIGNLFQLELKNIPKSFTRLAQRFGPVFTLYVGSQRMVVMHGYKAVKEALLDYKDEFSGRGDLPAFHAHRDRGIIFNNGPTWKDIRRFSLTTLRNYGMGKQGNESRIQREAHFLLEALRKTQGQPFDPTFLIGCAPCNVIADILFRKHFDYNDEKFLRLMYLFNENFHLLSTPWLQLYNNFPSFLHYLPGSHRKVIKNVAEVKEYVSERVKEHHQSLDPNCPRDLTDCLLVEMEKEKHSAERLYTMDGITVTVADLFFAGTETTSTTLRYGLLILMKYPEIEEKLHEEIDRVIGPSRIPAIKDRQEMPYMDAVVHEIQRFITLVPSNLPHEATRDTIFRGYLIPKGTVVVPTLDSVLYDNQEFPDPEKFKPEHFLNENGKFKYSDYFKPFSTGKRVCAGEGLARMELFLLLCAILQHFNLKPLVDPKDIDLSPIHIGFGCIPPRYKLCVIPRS
The target in assay [7] is T4, Cytochrome P450 2C9. As to the kind of experiment: Inhibition of recombinant human CYP2C9 expressed in baculosomes using Vivid OOMR substrate red measured every 30 sec for 30 mins by fluorescence assay.
Assay [8] concerns the target T5, Cytochrome P450 2C19. Nature of the assay: Inhibition of recombinant human CYP2C19 expressed in baculosomes using Vivid EOMCC substrate blue measured every 30 sec for 30 mins by fluorescence assay.
Assay [9] deals with T6, Cytochrome P450 3A4. Nature of the assay: Inhibition of recombinant human CYP3A4 expressed in baculosomes using Vivid DBOMF substrate green measured every 30 sec for 30 mins by fluorescence assay.
In assay [10] the target is T6, Cytochrome P450 3A4. As to the kind of experiment: Inhibition of recombinant human CYP3A4 expressed in baculosomes using Vivid BOMR substrate red measured every 30 sec for 30 mins by fluorescence assay.
Assay [11] deals with T6, Cytochrome P450 3A4. As to the kind of experiment: Inhibition of recombinant human CYP3A4 expressed in baculosomes using Vivid BOMCC substrate blue measured every 30 sec for 30 mins by fluorescence assay.
The target in assay [12] is T8, Cytochrome P450 2D6. Nature of the assay: Inhibition of recombinant human CYP2D6 expressed in baculosomes using Vivid EOMCC substrate blue measured every 30 sec for 30 mins by fluorescence assay.
In assay [13] the target is T6, Cytochrome P450 3A4. As to the kind of experiment: Inhibition of CYP3A4 in human liver microsomes using midazolam as substrate.
Assay [14] deals with T6, Cytochrome P450 3A4. As to the kind of experiment: Inhibition of CYP3A4 in human liver microsomes using midazolam as substrate preincubated for 10 mins followed by NADPH addition measured after 5 mins.
For assay [15], the target named is T1, Cytochrome P450 1A2. Nature of the assay: Inhibition of CYP1A2 in human liver microsomes using phenacetin as substrate by HPLC analysis.
In assay [16] the target is T4, Cytochrome P450 2C9. Nature of the assay: Inhibition of CYP2C9 in human liver microsomes using tolbutamide as substrate by HPLC analysis.
Assay [17] addresses T5, Cytochrome P450 2C19. As to the kind of experiment: Inhibition of CYP2C19 in human liver microsomes using (S)-mephenytoin as substrate by HPLC analysis.
Assay [18] deals with T9, Cytochrome P450 2E1. Nature of the assay: Inhibition of CYP2E1 in human liver microsomes using chlorzoxazone as substrate by HPLC analysis.

T6 sequence (P08684 whole entry): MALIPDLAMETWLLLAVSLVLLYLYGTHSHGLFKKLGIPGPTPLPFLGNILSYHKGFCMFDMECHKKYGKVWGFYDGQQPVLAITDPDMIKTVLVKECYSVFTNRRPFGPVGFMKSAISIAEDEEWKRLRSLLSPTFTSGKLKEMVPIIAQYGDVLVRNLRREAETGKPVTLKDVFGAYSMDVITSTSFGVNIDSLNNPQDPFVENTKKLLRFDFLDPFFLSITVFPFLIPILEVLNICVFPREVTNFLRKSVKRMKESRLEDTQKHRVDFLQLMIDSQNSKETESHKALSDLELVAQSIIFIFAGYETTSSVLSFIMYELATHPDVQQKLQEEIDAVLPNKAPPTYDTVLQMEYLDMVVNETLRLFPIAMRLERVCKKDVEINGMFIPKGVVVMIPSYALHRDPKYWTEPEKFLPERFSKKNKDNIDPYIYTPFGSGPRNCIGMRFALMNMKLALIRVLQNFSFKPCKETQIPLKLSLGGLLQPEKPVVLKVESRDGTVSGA
T4 sequence (P11712 whole entry): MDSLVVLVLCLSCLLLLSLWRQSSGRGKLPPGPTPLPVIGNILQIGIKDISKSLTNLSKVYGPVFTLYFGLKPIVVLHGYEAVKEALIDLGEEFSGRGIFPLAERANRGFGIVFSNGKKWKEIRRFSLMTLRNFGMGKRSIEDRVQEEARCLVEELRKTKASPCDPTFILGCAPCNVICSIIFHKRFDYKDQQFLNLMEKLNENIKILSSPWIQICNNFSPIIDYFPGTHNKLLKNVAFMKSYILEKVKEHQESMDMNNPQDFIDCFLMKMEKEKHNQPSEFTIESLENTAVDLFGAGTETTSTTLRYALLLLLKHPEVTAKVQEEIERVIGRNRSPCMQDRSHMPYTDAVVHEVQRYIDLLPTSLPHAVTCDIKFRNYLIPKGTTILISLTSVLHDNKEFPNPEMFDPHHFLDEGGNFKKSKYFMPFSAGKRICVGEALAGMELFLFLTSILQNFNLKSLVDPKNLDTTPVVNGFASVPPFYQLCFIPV

In the case of `CCCCCCC[C@H](O)CC(=O)CCc1ccc(O)c(OC)c1`, the IC50 against Cytochrome P450 1A2 [1] amounted to 27.3 µM; against Cytochrome P450 2B6, 8.1 µM; on Cytochrome P450 2C8 it was 2.2 µM; against Cytochrome P450 2C9 [2] it was 8.7 µM; against Cytochrome P450 2C19 [3], 8.1 µM; against Cytochrome P450 3A4 [4] it was 8.1 µM. For the same compound, the IC50 came to 59 µM at Cytochrome P450 2A6; 74.5 µM at Cytochrome P450 2D6 [5]; 93.2 µM against Cytochrome P450 2E1 [6]; 6.8 µM on Cytochrome P450 2C9 [7]; 12.5 µM at Cytochrome P450 2C19 [8]; 11.6 µM at Cytochrome P450 3A4 [9]. For the same compound, the half-inhibitory concentration (IC50) on Cytochrome P450 3A4 [10] was found to be 10.5 µM; on Cytochrome P450 3A4 [11], 8.7 µM; at Cytochrome P450 2D6 [12], 42.7 µM.

Regarding `CCCCCCCCC[C@H](O)CC(=O)CCc1ccc(O)c(OC)c1`, the IC50 on Cytochrome P450 2B6 turned out to be 4.3 µM; at Cytochrome P450 2C8, 2 µM; on Cytochrome P450 2C9 [2], 7.5 µM; on Cytochrome P450 2C19 [3], 6.6 µM; against Cytochrome P450 3A4 [4], 7.1 µM; against Cytochrome P450 2A6, 98.3 µM. In addition, the IC50 came to 54.9 µM at Cytochrome P450 2D6 [5]; 16.3 µM on Cytochrome P450 2C9 [7]; 13.6 µM on Cytochrome P450 2C19 [8]; 21.8 µM on Cytochrome P450 3A4 [9]; 24.9 µM at Cytochrome P450 3A4 [10]; 20.8 µM at Cytochrome P450 3A4 [11].

Consider `CCCCC[C@H](O)CC(=O)CCc1ccc(O)c(OC)c1` [GINGEROL], for which the IC50 worked out at 73.4 µM at Cytochrome P450 3A4 [13]; 40.8 µM against Cytochrome P450 2B6; 12.1 µM on Cytochrome P450 2C9 [7]; 30.7 µM at Cytochrome P450 2C19 [8]; 32 µM at Cytochrome P450 3A4 [9]; 42.9 µM on Cytochrome P450 3A4 [10]. Moreover, at Cytochrome P450 3A4 [11], the half-maximal inhibitory concentration (IC50) was found to be 21.8 µM.

Turning to `CCCCC/C=C/C(=O)CCc1ccc(O)c(OC)c1` [SHOGAOL], the IC50 is 2.5 µM against Cytochrome P450 1A2 [1]; 5.8 µM against Cytochrome P450 2B6; 2.9 µM on Cytochrome P450 2C8; 3.3 µM against Cytochrome P450 2C9 [2]; 8.3 µM at Cytochrome P450 3A4 [4]; 83.3 µM on Cytochrome P450 2A6. The IC50 was 87 µM on Cytochrome P450 2D6 [5]; 76.1 µM at Cytochrome P450 2E1 [6]; 65.2 µM against Cytochrome P450 3A4 [14]; 4 µM at Cytochrome P450 3A4 [10]; 20.7 µM against Cytochrome P450 1A2 [15]; 29.2 µM against Cytochrome P450 2C9 [16]. Also, the values for the concentration for half-maximal inhibition (IC50) at Cytochrome P450 2C19 [17] and at Cytochrome P450 2E1 [18] were 18.8 µM and 99.6 µM, respectively.
